Measured values: patent publication US20090275605A1, “3,11 b-cis-Dihydrotetrabenazine for the Treatment of a Proliferative Disease or an Inflammatory Disease” (CAMBRIDGE LABORATORIES (IRELAND) LIMITED, priority 2005, published 2009)
Where “and” joins values, the source holds several entries; their conditions need not be identical. Identical values can stand only once. Entries after “also recorded” stand apart in the source; their conditions may differ.

Experiments:
Sigma σ2 Receptor = molecular target: T1, Sigma σ2 Receptor (Rattus norvegicus, UniProt Q5U3Y7); experiment: Sigma σ2 receptor radioligand binding ([3H]Ifenprodil); conditions: 10 μM solutions; Wistar rat brain; 3 nM [3H]Ifenprodil
T1 construct: Source: Wistar rat brain; from tissue; host or cells: Wistar rat brain
T1 sequence (Q5U3Y7 1-176): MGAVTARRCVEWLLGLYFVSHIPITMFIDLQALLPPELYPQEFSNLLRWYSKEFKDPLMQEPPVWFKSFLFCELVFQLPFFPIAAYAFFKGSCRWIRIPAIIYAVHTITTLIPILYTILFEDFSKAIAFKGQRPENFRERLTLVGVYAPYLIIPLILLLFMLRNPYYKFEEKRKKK
Protocol: The four dihydrotetrabenazine isomers A, B, C and D subjected to specific binding assays to test their ability to bind to the sigma-1 and sigma-2 receptors.
Reference: Hashimoto et al., Eur. J. Pharmacol., 236:159-163, (1993) Source: Wistar rat brain
Incubation time/Temp: 60 minutes @ 37° C.
Bmax: 1.3 pmole/mg protein Specific binding: 85% Quantitation method: Radioligand binding Significance criteria: ≧50% of maximum stimulation or inhibition

Sigma σ1 Receptor = molecular target: T2, Sigma σ1 Receptor (Homo sapiens, UniProt Q99720); experiment: Sigma σ1 receptor radioligand binding ([3H]Haloperidol); conditions: for Percentage Inhibition of Specific Binding at Sigma-1 Receptor: 10 μM solutions, human jurkat cells, 8 nM [3H]Haloperidol
T2 construct: Source: Human jurkat cells; endogenous in cells; host or cells: Human Jurkat cells
T2 sequence (Q99720 whole entry): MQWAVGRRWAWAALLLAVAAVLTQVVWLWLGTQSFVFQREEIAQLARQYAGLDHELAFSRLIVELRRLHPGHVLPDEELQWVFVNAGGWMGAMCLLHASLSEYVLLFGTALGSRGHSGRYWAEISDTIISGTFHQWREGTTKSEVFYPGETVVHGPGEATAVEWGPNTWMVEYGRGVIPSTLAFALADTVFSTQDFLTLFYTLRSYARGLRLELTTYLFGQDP
Protocol: The four dihydrotetrabenazine isomers A, B, C and D subjected to specific binding assays to test their ability to bind to the sigma-1 and sigma-2 receptors. (a) Sigma σ1 Receptor: Reference: […] et al., Pharmacol. Exp. Ther., 289:251-260, (1999) Source: Human jurkat cells […] Vehicle: 1% DMSO Incubation time/Temp: 4 hours (25° C.

[1] = system: LPS/IFNγ stimulated human CD14+ monocytes; experiment: LPS/IFN stimulated production of cytokines by human monocytes (CBA cytokine analysis); format: cell-based
Protocol: The compounds of the invention were tested to determine the extent to they can modulate the production of cytokines by human monocytes. Monocytes are precursors of macrophages and are a key source of inflammatory cytokines in a wide range of disease states.
The following treatment groups were set up.
MACS Buffer: 1×PBS pH 7.2, 2 mM EDTA (Sigma), 5% human AB serum Culture Media: 500 ml RPMI 1640 (Invitrogen), 5 ml Penstrep (Sigma), 5 ml L-glutamine (Invitrogen), 10 ml HEPES (Sigma), 5% autologous plasma. Compounds: Stock at 10 mM in absolute ethanol. LPS: Salmonella abortis at 1 mg/ml (Sigma, Cat # LI 887). IFNγ: Recombinant human at 10 μg/ml (BD Pharmacia, Cat # 554617). MACS CD14 positive selection beads and LS columns (Miltenyi Biotech). CD14: FITC antibody (Miltenyi Biotech) Buffy coat obtained from Bristol National Blood Services. 1 ml of blood should give 7×10^6 total cells.
Spin buffycoat at 3500 rpm, 10 min. Remove upper plasma layer and heat-inactivate at 56° C., 30 min. Spin at 3500 rpm, 10 min to remove heat-inactivated complement proteins etc.
1. Resuspend remaining buffycoat in an equal volume of RPMI 1 640 medium and mix by inversion. 2. Prewarm histopaque (Sigma) to room temperature (RT) and add 10 ml to a universal. 3. Gently overlay with 15 ml blood/medium mix. 4. Spin at 1600 rpm for 25 minutes at RT (no brake). 5. PBMC are separated into the interface layer between the medium and the histopaque, remove cells to a 50 ml Falcon and add 10 ml medium.
6. Spin at 1800 rpm for 10 min at RT.
7. Wash ×3 with 40 ml RPMI medium and resuspend in culture medium. Isolate CD14^+ Cells by Positive Selection with CD14^+ MicroBeads Work on ice, with pre-cooled solutions. 1. Determine cell numbers (313×10×5×10^4=1.565×10^8 total cells) 2. Remove 100 μl cell sample for Fluorescence-Activated Cell-Sorting (FACS) analysis (pre-selection sample). 3. Spin at 1800 rpm for 10 minutes at 4° C. Remove supernatant. 4. Resuspend pellet in 80 μl buffer per 1×10^7 total cells (2400 μL/total cells). 5. Add 20 μl CD14 MicroBeads per 1×10^7 total cells (400 μl/total cells). 6. Mix well and incubate for 15 minutes at 4-8° C. 7. Wash cells with 1-2 ml buffer, spin at 300×g, 10 minutes at 4° C. Remove supernatant. 8. Resuspend up to 1×10^8 cells in 500 μl buffer (1 ml/total cells). Magnetic Separation with LS Column 1. Place column in magnetic field of MACS® Separator. Rinse column with 3 ml of MACS buffer. 2. Add cell suspension to column. 3. Collect unlabelled cells which pass through. Wash column with 3×3 ml buffer, allowing the column reservoir to empty between each wash. Collect total effluent (unlabelled cell fraction). 4. Remove column from separator and place on collection tube. 5. Add 5 ml buffer to column, immediately flushing out fraction with magnetically labelled cells by applying column plunger. 6. Spin cells in MACS Buffer and resuspend cell pellet in media. 7. Perform cell count on positively selected cells. • 71×20×5×10^4=7.1×10^7 cells/ml. Have 1.75 ml∴1.24×10^8 total cells. 8. Take sample to check purity by FACS add 10 μl CD14-FITC antibody and incubate, 5 minutes at 4-8° C.
Prepare compounds at 10 mM in absolute ethanol. Dilute prior to culture in media to the required concentrations.
Isolated CD14^+ monocytes were cultured in 24-well plates at 1×10^6 cells/ml/well. The monocytes were cultured in the presence of the test compounds and controls at various dilutions as set out in the table below. After overnight incubation, LPS (10 μg/ml) and IFNγ (100 ng/ml) were added to stimulate monocyte activation and elevate CB2 expression. After 48 hours, the supernatants were removed for CBA cytokine analysis.
Bring all buffers to room temperature and vortex before use 1. Make up assay buffer by adding to 450 ml distilled H2O and mixing gently. Store at 4° C. 2. Make up biotin-conjugate mix by 600 μl of each biotin-conjugates into a universal. 3. Make up bead mix by adding 300 μl of each bead set. 4. […]

[2] = system: T cells (balb/c mouse spleen cells); experiment: T cell proliferation (3H-thymidine incorporation, anti-CD3 coated plates); format: cell-based; conditions: plates 1-3 are triplicates
Protocol: The compounds of the invention were tested to determine the extent to they can inhibit T cell proliferation. T cells are responsible for co-ordinating the adaptive immune response and are drivers of inflammation in a wide range of disease states.
HBSS+2% HEPES buffer (500 ml+10 ml), Alpha MEM (500 ml)+2% HEPES (10 ml)+1% Pen/strep (5 ml)+2% L-Glutamine (10 ml)+50 μM 2-ME (500 μl) and Normal Mouse serum (NMS)
1. Coat 3×96 well plates columns 1-8, rows A-H with 100 μl anti-mouse CD3 at […] in PBS. 192 well in total, therefore made up 24 mls in PBS by adding 17 μl of stock at 1.44 mg/ml. Incubate 2 hours 37° C. 2. Pooled blood from 2 balb/c mice following cardiac puncture for preparation of NMS and removed spleens into HBSS+Hepes. 3. Placed blood at 37° C. for 30 minutes to clot, spun 3,000 rpm, 10 minutes in chilspin. Removed serum, filter sterilised and kept in fridge until use. 4. Transferred spleens to petri dishes containing 10 ml HBSS, used clean sterile wire mesh placed over spleen to release cells using a glass rod. Washed cells off mesh using pasteur pipette and transferred to a 15 ml tube. Spun at 1000 rpm for 10 minutes at room temperature (RT). 5. Resuspended cells, added 0.5 ml sterile DW to lyse RBC, mixed and immediately diluted in HBSS, transfered to 50 ml tube passing through cell strainer (70 μM) to remove debris, spun as above, washed cells once more in HBSS and finally resuspended in […] alpha MEM containing supplements (as above). 6. Cell counts—252 cells×2×5×10^4=2.52×10^7 cells/ml in 4 mls=10^8 cells in total. Dilute 2 mls to 25 mls to give a cell concentration of 2×10^6 cells/ml. 7. Added 250 μl NMS to cells to give a concentration of 1%. 8. Washed anti-CD3 coated plates 3×PBS. 9. Transferred 100 μl aliquots of cells to coated wells, rows A-H columns 1-8 of 3×96-well plates. Add equal volume of compounds diluted in a 96 well plate as shown below.
Transferred 3.5 μl compound at 10 mM to 346.5 μl media (1/100), transferred 35 μl of 1/100 dilution to 315 μl media (1/10) and so on down plate to give serial 1/10 dilutions of compound. Transferred 100 μl aliquots of different compound dilutions to wells of triplicate plates containing T cells.
Culture for 48 hours, then add a drop (16 μl) of ^3H-thymidine to each well and incubate overnight at 37° C. 5% CO2. Harvest. Measure ^3H-thymidine incorporation.

For COc1cc2c(cc1OC)[C@@H]1C[C@@H](O)[C@H](CC(C)C)CN1CC2 (single isomer, unassigned) [Isomer A], the “Percentage Inhibition of Specific Binding at Sigma-2 Receptor” value (Sigma σ2 Receptor) was 64% and the “Percentage Inhibition of Specific Binding at Sigma-1 Receptor” value (Sigma σ1 Receptor) was 48%.
For COc1cc2c(cc1OC)[C@H]1C[C@H](O)[C@@H](CC(C)C)CN1CC2 (single isomer, unassigned) [Isomer B], the “reduced production of IL-4” value ([1]; LPS/IFN stimulated monocytes, 100 μM to 10 pM, FIG. 2) was “at the majority of concentrations tested”, the “reduced production of IL-2” value ([1]; LPS/IFN stimulated monocytes, 100 μM to 10 pM, FIG. 3) was “at all concentrations tested” and the “reduced production of IL-5” value ([1]; LPS/IFN stimulated monocytes, 100 μM to 10 pM, FIG. 4) was “at the majority of concentrations tested”. For the same compound, the “reduced production of IL-10” value ([1]; LPS/IFN stimulated monocytes, 100 μM to 10 pM, FIG. 5) was “at the majority of concentrations tested”, the “reduced production of IL-12” value ([1]; LPS/IFN stimulated monocytes, 100 μM to 10 pM, FIG. 6) was “at all concentrations tested” and the “production of a range of different cytokines in monocytes” value ([1]; monocytes stimulated by LPS/IFN, FIGS. 1 to 6) was “reduced the production”. For the same compound, the “T cell Proliferation (3H-thymidine incorporation)” value (shortened to “T cell Proliferation”) ([2]; listed as A = 100 μM, listed as RU350) was 42 and 51.4 and 28, the “T cell Proliferation” value ([2]; listed as C = 1 μM, listed as RU350) was 62557.5 and 58812.6 and 46179.1 and the “T cell Proliferation” value ([2]; listed as D = 100 nM, listed as RU350) was 63867.2 and 67792.8 and 54194.4. The “T cell Proliferation” value ([2]; listed as E = 10 nM, listed as RU350) was 66290 and 70736.7 and 53277.2, the “T cell Proliferation” value ([2]; listed as F = 1 nM, listed as RU350) was 49054.3 and 74224 and 58924.4 and the “T cell Proliferation” value ([2]; listed as G = 100 pM, listed as RU350) was 46056.3 and 60937.4 and 59965.8. The “T cell Proliferation” value ([2]; listed as H = 10 pM, listed as RU350) was 52646.7 and 41897.1 and 57220.4, the “Percentage Inhibition of Specific Binding at Sigma-2 Receptor” value (Sigma σ2 Receptor) was 64% and the “Percentage Inhibition of Specific Binding at Sigma-1 Receptor” value (Sigma σ1 Receptor) was 82%. The “binding to the sigma-1 receptor (in words)” value (Sigma σ1 Receptor; comparison of the four isomers) was “bind more strongly; also recorded: stronger binding”.
In the case of CCCCCCC(C)(C)c1cc(O)c2c(c1)OC(C)(C)C1CCC(=O)CC21 (stereo not shown) [Nab, Nabilone, reference compound], the “T cell Proliferation” value ([2]; listed as B = 10 μM) is reported as 72188.2 and 78370.5 and 40910.7, the “T cell Proliferation” value ([2]; listed as C = 1 μM) is reported as 48534.9 and 44235.7 and 52155.5 and the “T cell Proliferation” value ([2]; listed as D = 100 nM) is reported as 65222 and 55348.5 and 41607.6. The “T cell Proliferation” value ([2]; listed as E = 10 nM) was 44970.2 and 46765.1 and 36442, the “T cell Proliferation” value ([2]; listed as F = 1 nM) was 36994.3 and 35152.2 and 37988.7 and the “T cell Proliferation” value ([2]; listed as G = 100 pM) was 37202.7 and 44920.7 and 36359.1. The “T cell Proliferation” value ([2]; listed as H = 10 pM) was 38818.1 and 34530 and 39295.7.
